Data taken from PubChem BioAssay AID1259411 (Chemical Carcinogenesis Research Information System (CCRIS), 2018).
Activity calls are given as the source filed them. No rule for the calls is given here.

System: rodent carcinogenicity bioassays, tumor incidence
Test: CCRIS carcinogenicity studies
Method in brief: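 NCI-built, expert-reviewed records of carcinogenicity and related test outcomes (mutagenicity, tumor promotion/inhibition) compiled from published and report sources, historical span 1985-2011, not updated.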

COC(C)(C)C
carcinogen call (Species: MOUSE, Strain/Sex: CD-1/FEMALE, Route: INHALATION, Dose: 0, 400, 3000, 8000 PPM IN AIR 6 HR/D 5 D/WK FOR 18 MO (STUDY DURATION: 18 MO), Dose: 0, 400, 3000, 8000 PPM IN AIR 6 HR/D 5 D/WK FOR 18 MO (STUDY DURATION: 18 MO), Tumor Site: Type of Lesion: LIVER: ADENOMA): active; positive | carcinogen call (Species: MOUSE, Strain/Sex: CD-1/MALE, Route: INHALATION, Dose: 0, 400, 3000, 8000 PPM IN AIR 6 HR/D 5 D/WK FOR 18 MO (STUDY DURATION: 18 MO), Dose: 0, 400, 3000, 8000 PPM IN AIR 6 HR/D 5 D/WK FOR 18 MO (STUDY DURATION: 18 MO)): inactive; negative | carcinogen call (Species: RAT, Strain/Sex: F344/FEMALE, Route: INHALATION, Dose: 0, 400, 3000, 8000 PPM IN AIR 6 HR/D 5 D/WK FOR 24 MO (STUDY DURATION: 24 MO), Dose: 0, 400, 3000, 8000 PPM IN AIR 6 HR/D 5 D/WK FOR 24 MO (STUDY DURATION: 24 MO)): inactive; negative | carcinogen call (Species: RAT, Strain/Sex: F344/MALE, Route: INHALATION, Dose: 0, 400, 3000, 8000 PPM IN AIR 6 HR/D 5 D/WK FOR 24 MO (STUDY DURATION: 24 MO), Dose: 0, 400, 3000, 8000 PPM IN AIR 6 HR/D 5 D/WK FOR 24 MO (STUDY DURATION: 24 MO), Tumor Site: Type of Lesion: KIDNEY(RENAL TUBULE): ADENOMA OR CARCINOMA): active; positive | carcinogen call (Species: RAT, Strain/Sex: SPRAGUE-DAWLEY/FEMALE, Route: GAVAGE, Dose: 0, 250, 1000 MG/KG BW IN 1 ML OLIVE OIL 1/D 4 D/WK FOR 104 WK (STUDY DURATION: 166 WK), Dose: 0, 250, 1000 MG/KG BW IN 1 ML OLIVE OIL 1/D 4 D/WK FOR 104 WK (STUDY DURATION: 166 WK), Tumor Site: Type of Lesion: HEMOLYMPHORETICULAR SYSTEM: LYMPHOMA OR LEUKEMIA): active; positive | carcinogen call (Species: RAT, Strain/Sex: SPRAGUE-DAWLEY/FEMALE, Route: GAVAGE, Dose: 0, 250, 1000 MG/KG BW IN OLIVE OIL 1/D 4D/WK FOR 104 WK (STUDY DURATION: LIFE SPAN), Dose: 0, 250, 1000 MG/KG BW IN OLIVE OIL 1/D 4D/WK FOR 104 WK (STUDY DURATION: LIFE SPAN), Tumor Site: Type of Lesion: MULTIPLE SITES: LYMPHOMA OR LEUKEMIA): active; positive | carcinogen call (Species: RAT, Strain/Sex: SPRAGUE-DAWLEY/MALE, Route: GAVAGE, Dose: 0, 250, 1000 MG/KG BW IN 1 ML OLIVE OIL 1/D 4 D/WK FOR 104 WK (STUDY DURATION: 166 WK), Dose: 0, 250, 1000 MG/KG BW IN 1 ML OLIVE OIL 1/D 4 D/WK FOR 104 WK (STUDY DURATION: 166 WK), Tumor Site: Type of Lesion: TESTES: LEYDIG CELL TUMOR): active; positive | carcinogen call (Species: RAT, Strain/Sex: SPRAGUE-DAWLEY/MALE, Route: GAVAGE, Dose: 0, 250, 1000 MG/KG BW IN OLIVE OIL 1/D 4D/WK FOR 104 WK (STUDY DURATION: LIFE SPAN), Dose: 0, 250, 1000 MG/KG BW IN OLIVE OIL 1/D 4D/WK FOR 104 WK (STUDY DURATION: LIFE SPAN), Tumor Site: Type of Lesion: TESTES: LEYDIG CELL TUMOR): active; positive

CC(=O)CN(N=O)C(N)=O
carcinogen call (Species: RAT, Strain/Sex: F344/FEMALE, Route: GAVAGE, Dose: 0, 8 MG/ML IN CORN OIL/ETHYL ACETATE (2:1) 2/WK FOR 30 WK (STUDY DURATION: LIFETIME), Tumor Site: Type of Lesion: KIDNEY MESENCHYME: TUMOR, THYROID: FOLLICULAR TUMOR): active; positive | carcinogen call (Species: RAT, Strain/Sex: F344/MALE, Route: GAVAGE, Dose: 0, 8 MG/ML IN CORN OIL/ETHYL ACETATE (2:1) 2/WK FOR 30 WK (STUDY DURATION: LIFETIME), Tumor Site: Type of Lesion: LUNG: TUMOR, MESOTHELIUM: TUMOR, KIDNEY MESENCHYME: TUMOR, Tumor Site: Type of Lesion: LUNG: TUMOR, MESOTHELIUM: TUMOR, KIDNEY MESENCHYME: TUMOR): active; positive

CN1[C@@H]2CC[C@H]1CC(OC(=O)C(CO)c1ccccc1)C2 (stereo not given in full)
carcinogen call (Species: RAT, Strain/Sex: SPRAGUE-DAWLEY/FEMALE, Route: INTRAPERITONEAL, Dose: 0, 25 UG/KG BW 2/D FOR 5 D TO VIRGIN FEMALE RATS (STUDY DURATION: 28 MO)): inactive; negative

O=S(=O)([O-])[O-].[Cd+2]
carcinogen call (Species: HAMSTER, Strain/Sex: SYRIAN/FEMALE, Route: INHALATION, Dose: 0, 30 UG/M3 19 HR/D 5 D/WK FOR 65 WK FOR A TOTAL CADMIUM DOSE OF 0, 180 MG/M3 (STUDY DURATION: 77 WK), Dose: 0, 30 UG/M3 19 HR/D 5 D/WK FOR 65 WK FOR A TOTAL CADMIUM DOSE OF 0, 180 MG/M3 (STUDY DURATION: 77 WK)): inactive; negative | carcinogen call (Species: HAMSTER, Strain/Sex: SYRIAN/MALE, Route: INHALATION, Dose: 0, 30 UG/M3 19 HR/D 5 D/WK FOR 65 WK FOR A TOTAL CADMIUM DOSE OF 0, 180 MG/M3 (STUDY DURATION: 113 WK), Dose: 0, 30 UG/M3 19 HR/D 5 D/WK FOR 65 WK FOR A TOTAL CADMIUM DOSE OF 0, 180 MG/M3 (STUDY DURATION: 113 WK)): inactive; negative | carcinogen call (Species: RAT, Strain/Sex: ALBINO/MALE, Route: SUBCUTANEOUS, Dose: 0.5 MG IN WATER 1/WK FOR 10 WK, Tumor Site: Type of Lesion: INJECTION SITE: SARCOMA, TESTES: INTERSTITIAL CELL TUMOR): active; positive | carcinogen call (Species: RAT, Strain/Sex: CB/MALE, Route: SUBCUTANEOUS, Dose: 0.5 MG, 1/WK FOR 10 WK, Tumor Site: Type of Lesion: INJECTION SITE: SARCOMA, TESTES: INTERSTITIAL CELL TUMOR): active; positive | carcinogen call (Species: RAT, Strain/Sex: WISTAR/FEMALE, Route: INHALATION, Dose: 0, 90 UG/M3 22 HR/D 7 D WK FOR 18 MO (STUDY DURATION: 18 MO), Tumor Site: Type of Lesion: LUNG: ALVEOLAR/BRONCHIOLAR ADENOMA, ALVEOLAR/BRONCHIOLAR ADENOCARCINOMA, SQUAMOUS CELL CARCINOMA): active; positive | carcinogen call (Species: RAT, Strain/Sex: WISTAR/FEMALE, Route: INHALATION, Dose: 0, 90 UG/M3 22 HR/D 7 D/WK FOR 18 MO (STUDY DURATION: 29 MO), Tumor Site: Type of Lesion: LUNG: ALVEOLAR/BRONCHIOLAR ADENOMA, ADENOCARCINOMA, SQUAMOUS CELL CARCINOMA): active; positive | carcinogen call (Species: RAT, Strain/Sex: WISTAR/FEMALE, Route: INHALATION, Dose: 0, 90 UG/M3 22 HR/D 7 D/WK FOR 18 MO (STUDY DURATION: 29 MO), Tumor Site: Type of Lesion: LUNG: TUMOR): active; positive | carcinogen call (Species: RAT, Strain/Sex: WISTAR/FEMALE, Route: INHALATION, Dose: 0, 90 UG/M3 AEROSOL 22 HR/D 7 D/WK FOR 18 MO (STUDY DURATION: 29 MO), Tumor Site: Type of Lesion: LUNG: ALVEOLAR/BRONCHIOLAR ADENOMA, ADENOCARCINOMA, SQUAMOUS CELL CARCINOMA): active; positive | carcinogen call (Species: RAT, Strain/Sex: WISTAR/MALE, Route: INHALATION, Dose: 0, 90 UG/M3 22 HR/D 7 D/WK FOR 14 MO (STUDY DURATION: 31 MO), Tumor Site: Type of Lesion: LUNG: ALVEOLAR/BRONCHIOLAR ADENOMA, ADENOCARCINOMA): active; positive | carcinogen call (Species: RAT, Strain/Sex: WISTAR/MALE, Route: INHALATION, Dose: 0, 90 UG/M3 22 HR/D 7 D/WK FOR 14 MO (STUDY DURATION: 31 MO), Tumor Site: Type of Lesion: LUNG: TUMOR): active; positive | carcinogen call (Species: RAT, Strain/Sex: WISTAR/MALE, Route: INHALATION, Dose: 0, 90 UG/M3 22 HR/D 7 D/WK FOR 135 MO (STUDY DURATION: 13.5 MO), Tumor Site: Type of Lesion: LUNG: ALVEOLAR/BRONCHIOLAR ADENOMA, ALVEOLAR/BRONCHIOLAR ADENOCARCINOMA, SQUAMOUS CELL CARCINOMA): active; positive | carcinogen call (Species: RAT, Strain/Sex: WISTAR/MALE, Route: INHALATION, Dose: 0, 90 UG/M3 AEROSOL 22 HR/D 7 D/WK FOR 14 MO (STUDY DURATION: 31 MO), Tumor Site: Type of Lesion: LUNG: ALVEOLAR/BRONCHIOLAR ADENOMA, ADENOCARCINOMA): active; positive

Nc1c(Cl)cc(Cl)cc1Cl
carcinogen call (Species: MOUSE, Strain/Sex: CD-1/MALE, Route: ORAL, Dose: 6000, 12000 PPM IN DIET, Tumor Site: Type of Lesion: BLOOD VESSELS): active; positive

C=CC1CC=CCC1 (stereo not given)
carcinogen call (Species: MOUSE, Strain/Sex: B6C3F1/FEMALE, Route: GAVAGE, Dose: 0, 200, 400 MG/KG IN CORN OIL 5 D/WK FOR 103 WK, Dose: 0, 200, 400 MG/KG IN CORN OIL 5 D/WK FOR 103 WK, Tumor Site: Type of Lesion: OVARIES: BENIGN MIXED TUMOR, GRANULOSA CELL TUMOR, GRANULOSA CELL TUMOR OR CARCINOMA): active; positive
